Experimental data reported in PMC11729419, “Thiol-Reactive or Redox-Active: Revising a Repurposing Screen Led to a New Invalidation Pipeline and Identified a True Noncovalent Inhibitor Against Papain-like Protease from SARS-CoV-2” (ACS Pharmacology & Translational Science, 2024).
Where two headings read alike, the source gives them in different places.

What was measured:
[1] = target: SARS-CoV-2 Mpro (Severe acute respiratory syndrome coronavirus 2, UniProt P0DTD1); type: biochemical; settings: 10 μM; 1 mM DTT
[2] = test system: SARS-CoV-2 BetaCoV/Belgium/GHB-03021/2020 strain; type: cell-based; settings: 300 μM, 2 μM CP-100356
[3] = Table S1, 20 µM, DTT buffer
[4] = target: SARS-CoV-2 PLpro (Severe acute respiratory syndrome coronavirus 2, UniProt P0DTD1); type: biochemical; settings: dose-response, ISG15 substrate
[5] = target: SARS-CoV-2 PLpro-NAB (Severe acute respiratory syndrome coronavirus 2, UniProt P0DTD1); experiment: biochemical; settings: for HC PLpro-NAB inhibition [%] 20 μM triplicates 1 mM DTT buffer: hit confirmation, DMSO = 0%; for HC PLpro-NAB inhibition [%] 20 μM triplicates 1 mM DTT buffer / HP PLpro-NAB inhibition [%] 20 μM triplicates 1 mM L-cys buffer: average (SD), 20 μM PR619 = 100%; for HP PLpro-NAB inhibition [%] 20 μM triplicates 1 mM L-cys buffer / IC50: hit profiling
[6] = test system: USP14, USP7, cathepsin-L; type: biochemical, human; settings: 10 μM; 1 mM DTT
Method: The assay was performed according to the manufacturer protocol, adapted to 384-well format with a final volume of 10 μL. […] 5 μL of cathepsin-L was added and incubated for 30 min at 25 °C. The enzymatic reaction was initiated by adding 5 μL substrate. […] Final assay concentrations of cathepsin-L and substrate were 0.01 ng/μL and 5 μM, respectively.
Plates were sealed and incubated for 30 min at 25 °C, followed by adding 5 μL/0.5 μM Ubiquitin-AMC (R&D Systems #U-550-050) substrate. The fluorescence signal was measured after 30 min of incubation (Ex/Em = 340/460; EnVision, PerkinElmer). […] The assay buffer is 50 mM Tris, 150 mM NaCl, 1 mM DTT, and 0.01% Tween 20 (pH 7.5).

Row | Compound | Preference PLpro over Mpro [1] | Spike RNA copy number [2] | Interference inhibition [%] 20 µM based on product interference DTT BUFFER ([3]; listed as CPI-169 (EOS)) [%] | Interference inhibition [%] 20 µM based on product interference DTT BUFFER ([3]; listed as CPI-169 (FhG)) [%] | Interference inhibition [%] 20 µM based on product interference DTT BUFFER ([3]; listed as Semapimod (EOS)) [%] | Interference inhibition [%] 20 µM based on product interference DTT BUFFER ([3]; listed as Semapimod (FhG)) [%] | Potency against PLpro compared with PLpro-NAB [4] | Inhibition in L-cysteine buffer versus DTT buffer (dose-response) ([5]; 1 mM L-cysteine vs 1 mM DTT) | Inhibitory activity on retest in 1 mM L-cysteine ([5]; 50% inhibition at 20 μM, 1 mM L-cysteine) | HC PLpro-NAB inhibition [%] 20 μM triplicates 1 mM DTT buffer ([5]; 1 mM DTT buffer, listed as semapimod (EOS)) | HC PLpro-NAB inhibition [%] 20 μM triplicates 1 mM DTT buffer ([5]; 1 mM DTT buffer, listed as semapimod (FhG)) | HP PLpro-NAB inhibition [%] 20 μM triplicates 1 mM L-cys buffer ([5]; 1 mM L-cys buffer, listed as semapimod (EOS)) | HP PLpro-NAB inhibition [%] 20 μM triplicates 1 mM L-cys buffer ([5]; 1 mM L-cys buffer, listed as semapimod (FhG)) | IC50 ([5]; read-out: HP PLpro-NAB IC50 [μM] duplicates 1 mM L-cys buffer, 1 mM L-cys buffer, listed as semapimod (EOS)) [µM] | IC50 ([5]; read-out: HP PLpro-NAB IC50 [μM] duplicates 1 mM L-cys buffer, 1 mM L-cys buffer, listed as semapimod (FhG)) [µM] | IC50 ([5]; read-out: HP PLpro-NAB IC50 [μM] triplicates 1 mM DTT buffer, 1 mM DTT buffer, listed as semapimod (EOS)) [µM] | IC50 ([5]; read-out: HP PLpro-NAB IC50 [μM] triplicates 1 mM DTT buffer, 1 mM DTT buffer, listed as semapimod (FhG)) [µM] | Selectivity versus human USP14, USP7, cathepsin-L [6]
1 | CCS(=O)(=O)N1CCC([C@@H](C)n2c(C)c(C(=O)NCc3c(OC)cc(C)[nH]c3=O)c3ccccc32)CC1 [CPI-169] | preferential inhibition of PLpro over Mpro | reduced the Spike RNA copy number significantly | 9.34 | -0.73 | – | – | – | – | – | – | – | – | – | – | – | – | – | –
2 | C/C(=N\NC(=N)N)c1cc(NC(=O)CCCCCCCCC(=O)Nc2cc(/C(C)=N/NC(=N)N)cc(/C(C)=N/NC(=N)N)c2)cc(/C(C)=N/NC(=N)N)c1 [semapimod] | preferential inhibition of PLpro over Mpro | – | – | – | 9.91 | -5.72 | activity exclusively against PLpro-NAB | did not show variations in inhibition potency or thermal stability | retained their inhibitory activity | 140.16 (2.99) % | 118.80 (3.35) % | 50.46 (6.98) % | 51.28 (5.64) % | > 20 | 14.4 | 1.21 | 5.23 | active across all of the tested targets
